Measurements: US11072635B2, “Macrocyclic broad spectrum antibiotics” (priority 2015, dated 2021)
≈ marks a conversion by molar mass, not a printed value. Where two headings read alike, the source gives them in different places.

Tests used:
[1] = molecular target: T1, SpsB (Staphylococcus aureus signal peptidase) (Staphylococcus aureus, UniProt P0A070); experiment: Whole-cell SpsB biochemical screening assay (kinetic fluorogenic enzyme activity)
T1 construct: a suspension of Staphylococcus aureus cells as a source of SpsB instead of recombinant SpsB protein; endogenous in cells; host or cells: S. aureus, USA300 background, overexpressing SpsB (whole-cell suspension)
Description: A kinetic fluorogenic enzyme activity assay was used to assess inhibition of SpsB (Staphylococcus aureus signal peptidase) activity and IC50s were determined. This assay uses a suspension of Staphylococcus aureus cells as a source of SpsB instead of recombinant SpsB protein.
Cell preparation: Luria broth (LB) was inoculated with S. aureus (USA300 background, overexpressing SpsB) and shaken at 37° C. until an OD600 nm of 1.5-2.0 was reached (˜4 hr). The culture was then diluted to an OD600 nm of 1.0 with LB, aliquoted and centrifuged at 10,000×g for 2 mins. The supernatant was removed and the pellet was resuspended in phosphate buffer (1×PBS, 12.5 mg/L MgCl2, 25 mg/L CaCl2, 0.1% Tween-80) to an OD600 nm of 0.5, then centrifuged again at 10,000×g for 2 mins. The supernatant was removed and the pellets were frozen at −20° C.
Test compounds were prepared in DMSO at a concentration of 10 mg/mL. These compound stocks were diluted into DMSO to a concentration of 25 μg/mL and serial 3-fold dilutions were made in DMSO, for a total of 11 compound concentrations. 20 nL of each compound solution was pre-spotted into a white 384-well plate (50 μL/well polypropylene, Nunc) using acoustic fluid transfer (Echo).
Frozen S. aureus pellets were resuspended in assay buffer (1×PBS, 12.5 mg/L MgCl2, 25 mg/L CaCl2, 0.1% Tween-80) to an OD600 nm of 0.05, then mixed 1:1 (v/v) with 20 μM substrate ((Dabcyl)βAla-KPAKAAE(Edans)) in assay buffer, and this solution was added (20 μL/well) to the 384-well plate that had been pre-spotted with compound. Fluorescence intensity was then immediately read kinetically for 30 minutes with 2 minute read intervals to monitor cleavage of the internally quenched peptide substrate (excitation wavelength=340 nm, emission wavelength=490 nm, Molecular Devices Spectramax M5). Reaction rate (slope) was plotted against inhibitor concentration to derive the IC50.

[2] = system: Escherichia coli MC4100 harboring the IMP4213 (E. coli IMP); experiment: microbe, parasite or virus in culture; format: cell-based; conditions: 22 h, read-out: MIC (μg/mL) E. coli IMP
Description: (§1) In vitro antimicrobial activity of each compound was determined by measuring minimal inhibitor concentrations (MICs) using the broth micro-dilution technique as approved by the Clinical and Laboratory Standards Institute (CLSI) (Methods for Dilution Antimicrobial Susceptibility Tests for Bacteria that Grow Aerobically; Approved Standard—Eighth Edition. CLSI document M07-A8. Wayne, Pa.: Clinical and Laboratory Standards; 2009). Antibacterial activity was measure against three strains of bacteria: a Methicillin Resistant Staphylococcus aureus strain USA 300, NRS384 (S. aureus); a strain of Escherichia coli MC4100 harboring the IMP4213 (E. coli IMP), which results in increased outer-membrane permeability (B Martin and Silhavy T. Imp/OstA is required for cell envelope biogenesis in Escherichia coli. (2002) Molecular Microbiology, 45(5), 1289-1302), and Escherichia coli ATCC 25922 (E. coli), a clinically relevant Gram-negative strain. Cells were inoculated onto plates of Trypyticase Soy Agar or Luria Agar respectively and grown at 35° C. for 20 hours. Inocula suspensions were prepared by scraping cells into 1 mL of testing media (cation adjusted Mueller Hinton Broth supplemented with 0.002% v/v Tween-80) and diluting to a final OD600 nm of 0.01.
(§2) Test compounds were prepared in DMSO at a concentration of 10 mg/mL. […] In protocol 2, the compound stocks were diluted into testing media at a concentration of 4 μg/mL and serial 2-fold dilutions were made in the same media, in 96-well U bottom microtiter dishes, for a total of 10 compound concentrations. In protocol 3, compound stocks were diluted into testing media at a concentration of 0.5 μg/mL, with serial 2-fold dilutions conducted as described above. […] Inocula suspensions were added to the 2-fold serial dilutions of test compounds to a final density of OD OD600 nm of 0.0005 and incubated at 35° C. for 22 hours.

[3] = system: Escherichia coli ATCC 25922 (E. coli); experiment: Minimum inhibitory concentration, broth micro-dilution (CLSI); format: cell-based; conditions: read-out: MIC (μg/mL) E. coli
Description: Cells were inoculated onto plates of Trypyticase Soy Agar or Luria Agar respectively and grown at 35° C. for 20 hours. Inocula suspensions were prepared by scraping cells into 1 mL of testing media (cation adjusted Mueller Hinton Broth supplemented with 0.002% v/v Tween-80) and diluting to a final OD600 nm of 0.01.
as §2

[4] = system: Methicillin Resistant Staphylococcus aureus strain USA 300, NRS384 (S. aureus); experiment: as above; format: cell-based
Description: as §1, §2

[5] = ATCC25922, E. coli ATCC 25922, 35° C., 22 hours
[6] = MRSA / NRS 384 / USA300, MRSA USA 300, NRS384, 35° C., 22 hours, cation adjusted Mueller Hinton Broth with 0.002% Tween-80, read-out: MIC (μg/mL) S. aureus
[7] = MRSA / NRS 384 / USA300, 22 h, read-out: MIC (μg/mL) S. aureus

T1 sequence (P0A070 whole entry): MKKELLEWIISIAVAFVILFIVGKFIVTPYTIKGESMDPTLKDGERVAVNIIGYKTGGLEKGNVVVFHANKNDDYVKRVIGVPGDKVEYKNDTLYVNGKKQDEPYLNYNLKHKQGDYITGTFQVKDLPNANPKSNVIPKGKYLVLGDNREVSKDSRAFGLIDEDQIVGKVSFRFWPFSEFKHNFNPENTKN

Row | SMILES | IC50 [1] | MIC [2] | MIC [3, 5] | MIC [4, 6] | MIC ([3]; ATCC25922, 22 h) | MIC [4, 7]
1 | CCCCc1ccc(-c2ccc(C(=O)N[C@@H](CCCCN)C(=O)N(C)[C@@H]3C(=O)N[C@@H](C)C(=O)N[C@H](C(=O)Nc4ccncc4C#N)Cc4ccc(OCCN)c(c4)-c4cc3ccc4OCCN)cc2)cc1 [Compound 121] | 12 nM | 0.25 µg/mL (≈ 0.259 µM) | 8 µg/mL (≈ 8.29 µM) | 4 µg/mL (≈ 4.14 µM) | – | –
2 | CCCCc1ccc(-c2ccc(C(=O)N[C@@H](CN)C(=O)N(C)[C@@H]3C(=O)N[C@@H](C)C(=O)N[C@H](c4nnn[nH]4)Cc4ccc(OCCN)c(c4)-c4cc3ccc4OCCN)cc2)cc1 [Compound 123] | 15 nM | < 0.063 µg/mL | 8 µg/mL (≈ 9.46 µM) | 1.5 µg/mL (≈ 1.77 µM) | – | –
3 | CCCCc1ccc(-c2ccc(C(=O)N[C@@H](CN)C(=O)N(C)[C@@H]3C(=O)N[C@@H](C)C(=O)N[C@H](C#N)Cc4ccc(OCCN)c(c4)-c4cc3ccc4OCCN)cc2)cc1 [Compound 124] | 14 nM | 0.5 µg/mL (≈ 0.623 µM) | 8 µg/mL (≈ 9.96 µM) | 1 µg/mL (≈ 1.25 µM) | – | –
4 | CCCCc1ccc(-c2ccc(C(=O)N[C@@H](CN)C(=O)N(C)[C@@H]3C(=O)N[C@@H](C)C(=O)N[C@H](c4noc(=O)[nH]4)Cc4ccc(OCCN)c(c4)-c4cc3ccc4OCCN)cc2)cc1 [Compound 125] | 1 nM | 0.036 µg/mL (≈ 0.0418 µM) | 0.5 µg/mL (≈ 0.58 µM) | 0.38 µg/mL (≈ 0.441 µM) | – | –
5 | CCCCc1ccc(-c2ccc(C(=O)N[C@@H](CN)C(=O)N(C)[C@@H]3C(=O)N[C@@H](C)C(=O)N[C@H](c4n[nH]c(=O)[nH]4)Cc4ccc(OCCN)c(c4)-c4cc3ccc4OCCN)cc2)cc1 [Compound 126] | 6.2 nM | 0.031 µg/mL (≈ 0.036 µM) | 1 µg/mL (≈ 1.16 µM) | 4 µg/mL (≈ 4.65 µM) | – | –
6 | CCCCc1ccc(-c2ccc(C(=O)N[C@@H](CN)C(=O)N(C)[C@@H]3C(=O)N[C@@H](C)C(=O)N[C@H](CC#N)Cc4ccc(OCCN)c(c4)-c4cc3ccc4OCCN)cc2)cc1 [Compound 127] | 2.7 nM | 2 µg/mL (≈ 2.45 µM) | 32 µg/mL (≈ 39.2 µM) | 2 µg/mL (≈ 2.45 µM) | – | –
7 | CCCCc1ccc(-c2ccc(C(=O)N[C@@H](CCCN)C(=O)N(C)[C@@H]3C(=O)N[C@@H](C)C(=O)N[C@H](C(=O)NS(N)(=O)=O)Cc4ccc(OCCN)c(c4)-c4cc3ccc4OCCN)cc2)cc1 [Compound 128] | 1.5 nM | 0.012 µg/mL (≈ 0.0129 µM) | – | – | 0.75 µg/mL (≈ 0.808 µM) | 1.5 µg/mL (≈ 1.62 µM)
8 | C#CCNC(=O)[C@@H]1Cc2ccc(OCCN)c(c2)-c2cc(ccc2OCCN)[C@H](N(C)C(=O)[C@H](CCCN)NC(=O)c2ccc(-c3ccc(CCCC)cc3)cc2)C(=O)N[C@@H](C)C(=O)N1 [Compound 129] | 2.2 nM | 0.094 µg/mL (≈ 0.106 µM) | – | – | 4 µg/mL (≈ 4.51 µM) | 0.5 µg/mL (≈ 0.564 µM)
9 | CCCCCCCCc1ccc(C(=O)N[C@@H](CCN)C(=O)N(C)[C@@H]2C(=O)N[C@@H](C)C(=O)N[C@H](c3noc(=O)[nH]3)Cc3ccc(OCCN)c(c3)-c3cc2ccc3OCCN)c(C)c1 [Compound 131] | 2.1 nM | 0.0078 µg/mL (≈ 0.00896 µM) | 0.5 µg/mL (≈ 0.575 µM) | 0.094 µg/mL (≈ 0.108 µM) | – | –
10 | CCCCCCCCc1ccc(C(=O)N[C@@H](CCN)C(=O)N(C)[C@@H]2C(=O)N[C@@H](C)C(=O)N[C@H](c3noc(=S)[nH]3)Cc3ccc(OCCN)c(c3)-c3cc2ccc3OCCN)c(C)c1 [Compound 133] | 2.3 nM | 0.094 µg/mL (≈ 0.106 µM) | 8 µg/mL (≈ 9.03 µM) | 1 µg/mL (≈ 1.13 µM) | – | –
11 | CCCCc1ccc(-c2ccc(C(=O)N[C@@H](CCCN)C(=O)N(C)[C@@H]3C(=O)N[C@@H](C)C(=O)N[C@H](C(=O)NC#N)Cc4ccc(OCCN)c(c4)-c4cc3ccc4OCCN)cc2)cc1 [Compound 134] | 7.1 nM | 0.13 µg/mL (≈ 0.149 µM) | 4 µg/mL (≈ 4.58 µM) | 1 µg/mL (≈ 1.14 µM) | – | –
12 | CCCCc1ccc(-c2ccc(C(=O)N[C@@H](CCCN)C(=O)N(C)[C@@H]3C(=O)N[C@@H](C)C(=O)N[C@H](C(=O)NO)Cc4ccc(OCCN)c(c4)-c4cc3ccc4OCCN)cc2)cc1 [Compound 136] | 1.2 nM | 0.13 µg/mL (≈ 0.15 µM) | – | – | 2 µg/mL (≈ 2.31 µM) | 0.38 µg/mL (≈ 0.439 µM)
13 | CCCCc1ccc(-c2ccc(C(=O)N[C@@H](CCCN)C(=O)N(C)[C@@H]3C(=O)N[C@@H](C)C(=O)N[C@H](C(=O)NN)Cc4ccc(OCCN)c(c4)-c4cc3ccc4OCCN)cc2)cc1 [Compound 137] | 1.4 nM | 0.094 µg/mL (≈ 0.109 µM) | – | – | 3 µg/mL (≈ 3.47 µM) | 0.5 µg/mL (≈ 0.579 µM)
14 | CCCCc1ccc(-c2ccc(C(=O)N[C@@H](CCCN)C(=O)N(C)[C@@H]3C(=O)N[C@@H](C)C(=O)N[C@H](c4ncc(C#N)[nH]4)Cc4ccc(OCCN)c(c4)-c4cc3ccc4OCCN)cc2)cc1 [Compound 139] | 110 nM | 1.5 µg/mL (≈ 1.67 µM) | 24 µg/mL (≈ 26.8 µM) | 1 µg/mL (≈ 1.11 µM) | – | –
15 | CCCCc1ccc(-c2ccc(C(=O)N[C@@H](CCCN)C(=O)N(C)[C@@H]3C(=O)N[C@@H](C)C(=O)N[C@H](c4ncc(C(F)(F)F)[nH]4)Cc4ccc(OCCN)c(c4)-c4cc3ccc4OCCN)cc2)cc1 [Compound 140] | 370 nM | 1 µg/mL (≈ 1.06 µM) | 32 µg/mL (≈ 34 µM) | 4 µg/mL (≈ 4.25 µM) | – | –
16 | CCCCCCCCCCCCCC(=O)N[C@@H](CCN)C(=O)N(C)[C@@H]1C(=O)N[C@@H](C)C(=O)N[C@H](c2noc(=O)[nH]2)Cc2ccc(OCCN)c(c2)-c2cc1ccc2OCCN [Compound 143] | 1.5 nM | 0.023 µg/mL (≈ 0.0271 µM) | 0.5 µg/mL (≈ 0.588 µM) | 0.13 µg/mL (≈ 0.153 µM) | – | –
